Measured values reported in ChEMBL document CHEMBL4196027, “Structure-based discovery of cytotoxic dimeric tetrahydroxanthones as potential topoisomerase I inhibitors from a marine-derived fungus” (Eur J Med Chem, 2018).

Key:
[1] = test system: HL-60; assay: Cytotoxicity against human HL60 cells assessed as reduction in cell proliferation after 48 hrs by MTT assay; type: functional, cell-based; conditions: Homo sapiens, HL-60, 48 h
[2] = test system: K562; assay: Cytotoxicity against human K562 cells assessed as reduction in cell proliferation after 48 hrs by MTT assay; type: functional, cell-based; conditions: Homo sapiens, K562, 48 h
[3] = test system: A549; assay: Cytotoxicity against human A549 cells assessed as reduction in cell proliferation after 48 hrs by MTT assay; type: functional, cell-based; conditions: Homo sapiens, A549, 48 h
[4] = test system: NCI-H1975; assay: Cytotoxicity against human NCI-H1975 cells assessed as reduction in cell proliferation after 48 hrs by MTT assay; type: functional, cell-based; conditions: Homo sapiens, NCI-H1975, 48 h
[5] = test system: MGC-803; assay: Cytotoxicity against human MGC803 cells assessed as reduction in cell proliferation after 48 hrs by MTT assay; type: functional, cell-based; conditions: Homo sapiens, MGC-803, 48 h
[6] = test system: HEK293; assay: Cytotoxicity against HEK293 cells assessed as reduction in cell proliferation after 48 hrs by MTT assay; type: cell-based; conditions: Homo sapiens, HEK293, 48 h
[7] = Cytotoxicity against human HO8910 cells assessed as reduction in cell proliferation after 48 hrs by MTT assay; type: functional, cell-based; conditions: Homo sapiens, HO-8910, 48 h
[8] = test system: HCT-116; assay: Cytotoxicity against human HCT116 cells assessed as reduction in cell proliferation after 48 hrs by MTT assay; type: functional, cell-based; conditions: Homo sapiens, HCT-116, 48 h
[9] = test system: MGC-803; assay: Cell cycle arrest in human MGC803 cells assessed as accumulation at G0/G1 phase at 6.25 uM after 24 hrs by propidium iodide staining based flow cytometry (reference value: 59.68%); type: functional
[10] = test system: MGC-803; assay: Cell cycle arrest in human MGC803 cells assessed as accumulation at S phase at 6.25 uM after 24 hrs by propidium iodide staining based flow cytometry (reference value: 31.17%); type: functional
[11] = test system: MGC-803; assay: Cell cycle arrest in human MGC803 cells assessed as accumulation at G2/M phase at 6.25 uM after 24 hrs by propidium iodide staining based flow cytometry (reference value: 9.15%); type: functional
[12] = test system: MGC-803; assay: Cell cycle arrest in human MGC803 cells assessed as accumulation at G0/G1 phase at 12.5 uM after 24 hrs by propidium iodide staining based flow cytometry (reference value: 59.68%); type: functional
[13] = test system: MGC-803; assay: Cell cycle arrest in human MGC803 cells assessed as accumulation at S phase at 12.5 uM after 24 hrs by propidium iodide staining based flow cytometry (reference value: 31.17%); type: functional
[14] = test system: MGC-803; assay: Cell cycle arrest in human MGC803 cells assessed as accumulation at G2/M phase at 12.5 uM after 24 hrs by propidium iodide staining based flow cytometry (reference value: 9.15%); type: functional
[15] = test system: MGC-803; assay: Cell cycle arrest in human MGC803 cells assessed as accumulation at G0/G1 phase at 25 uM after 24 hrs by propidium iodide staining based flow cytometry (reference value: 59.68%); type: functional
[16] = test system: MGC-803; assay: Cell cycle arrest in human MGC803 cells assessed as accumulation at S phase at 25 uM after 24 hrs by propidium iodide staining based flow cytometry (reference value: 31.17%); type: functional
[17] = test system: MGC-803; assay: Cell cycle arrest in human MGC803 cells assessed as accumulation at G2/M phase at 25 uM after 24 hrs by propidium iodide staining based flow cytometry (reference value: 9.15%); type: functional
[18] = test system: MGC-803; assay: Induction of apoptosis in human MGC803 cells assessed as early apoptotic cells at 6.25 uM after 24 hrs by Annexin V-FITC/propidium iodide staining based flow cytometry (reference value: 0.56%); type: functional
[19] = test system: MGC-803; assay: Induction of apoptosis in human MGC803 cells assessed as late apoptotic cells at 6.25 uM after 24 hrs by Annexin V-FITC/propidium iodide staining based flow cytometry (reference value: 0.12%); type: functional
[20] = test system: MGC-803; assay: Induction of apoptosis in human MGC803 cells assessed as necrotic cells at 6.25 uM after 24 hrs by Annexin V-FITC/propidium iodide staining based flow cytometry (reference value: 0.92%); type: functional
[21] = test system: MGC-803; assay: Induction of apoptosis in human MGC803 cells assessed as early apoptotic cells at 12.5 uM after 24 hrs by Annexin V-FITC/propidium iodide staining based flow cytometry (reference value: 0.56%); type: functional
[22] = test system: MGC-803; assay: Induction of apoptosis in human MGC803 cells assessed as late apoptotic cells at 12.5 uM after 24 hrs by Annexin V-FITC/propidium iodide staining based flow cytometry (reference value: 0.12%); type: functional
[23] = test system: MGC-803; assay: Induction of apoptosis in human MGC803 cells assessed as necrotic cells at 12.5 uM after 24 hrs by Annexin V-FITC/propidium iodide staining based flow cytometry (reference value: 0.92%); type: functional
[24] = test system: MGC-803; assay: Induction of apoptosis in human MGC803 cells assessed as early apoptotic cells at 25 uM after 24 hrs by Annexin V-FITC/propidium iodide staining based flow cytometry (reference value: 0.56%); type: functional
[25] = test system: MGC-803; assay: Induction of apoptosis in human MGC803 cells assessed as late apoptotic cells at 25 uM after 24 hrs by Annexin V-FITC/propidium iodide staining based flow cytometry (reference value: 0.12%); type: functional
[26] = test system: MGC-803; assay: Induction of apoptosis in human MGC803 cells assessed as necrotic cells at 25 uM after 24 hrs by Annexin V-FITC/propidium iodide staining based flow cytometry (reference value: 0.92%); type: functional
[27] = test system: MGC-803; assay: Induction of necrosis in human MGC803 cells at 6.25 uM after 48 hrs by Hoechst 33342/propidium iodide staining based flow cytometry (reference value: 3.73%); type: functional
[28] = test system: MGC-803; assay: Induction of necrosis in human MGC803 cells at 12.5 uM after 48 hrs by Hoechst 33342/propidium iodide staining based flow cytometry (reference value: 3.73%); type: functional
[29] = test system: MGC-803; assay: Induction of necrosis in human MGC803 cells at 25 uM after 48 hrs by Hoechst 33342/propidium iodide staining based flow cytometry (reference value: 3.73%); type: functional

COC(=O)[C@@]12Oc3cc(C)c(-c4ccc5c(c4O)C(=O)C4=C(O)C[C@H](C)[C@@H](O)[C@]4(C(=O)OC)O5)c(O)c3C(=O)C1=C(O)CC[C@H]2O (stereo in doubt; 1)
IC50 [1]: 13.4 µM
IC50 [2]: 20.9 µM
IC50 [3]: 17.8 µM
IC50 [4]: 9.8 µM
IC50 [5]: 4.6 µM
IC50 [6]: > 50 µM
IC50 [7]: 9.6 µM
IC50 [8]: 16.2 µM
Activity [9]: 33.65%
Activity [10]: 31.02%
Activity [11]: 35.33%
Activity [12]: 25.7%
Activity [13]: 36.98%
Activity [14]: 37.32%
Activity [15]: 29.67%
Activity [16]: 22.9%
Activity [17]: 47.43%
Activity [18]: 0.26%
Activity [19]: 0.17%
Activity [20]: 1.88%
Activity [21]: 0.42%
Activity [22]: 0.56%
Activity [23]: 1.46%
Activity [24]: 0.26%
Activity [25]: 0.59%
Activity [26]: 4.06%
Activity [27]: 6.97%
Activity [28]: 19.29%
Activity [29]: 31.33%
